The record followed here is patent publication US20140057798A1, “PREDICTION OF DRUG SENSITIVITY OF LUNG TUMORS BASED ON MOLECULAR GENETIC SIGNATURES” (NESTEC S.A., priority 2011, published 2014).

Each structure is given as a SMILES string. “Also recorded” adds a separate entry of the source. Read-outs that look alike come from different tables or passages of the source.

In one assay the test system is H1975 cells. The assay can be described thus: Inhibition of tumor cell line growth (CellTiter-Glo), H1975. In kind it is cell-based, human. In general terms: Cellular ATP, detected with luciferase, serves as a proxy for viable cell number.
In assay [1] the test system is H1993 cells. The assay can be described thus: Inhibition of tumor cell line growth (CellTiter-Glo), H1993. Format: cell-based, human. The following applies: H1993, single inhibitor 0.01-10 μM, 5% FBS, 48 hours.
The test system of assay [2] is A549 cells. The assay can be described thus: Inhibition of tumor cell line growth (CellTiter-Glo), A549. Format: cell-based, human. The following applies: A549, single inhibitor 0.01-10 μM, 5% FBS, 48 hours.
The test system of assay [3] is H460 cells. The assay can be described thus: Inhibition of tumor cell line growth (CellTiter-Glo), H460. Format: cell-based, human. The following applies: H460, single inhibitor 0.01-10 μM, 5% FBS, 48 hours.
Assay [4] relates to eight human lung tumor cell lines. The assay can be described thus: Inhibition of tumor cell growth, panel of lung tumor cell lines. Format: cell-based.
Another assay has as its system H1650 cells. The assay can be described thus: Inhibition of tumor cell line growth (CellTiter-Glo), H1650. In kind it is cell-based, human. To be noted: H1650, single inhibitor 0.01-10 μM, 5% FBS, 48 hours.
For assay [5], the system named is IGF-1R pathway in A549 cells. The assay can be described thus: Inhibition of activated signaling pathways by kinase inhibitors (CEER assay), A549. Format: cell-based, human. The following applies: A549, serum-starved overnight, 4-hour treatment, CEER assay (FIG. 2).
Description: (§1) The principal of the CEER™ assay is based on the capture of the target protein by a target-specific antibody printed in two dilutions on the surface of a microarray slide. […] Formation of this complex is initiated by the binding of the first detecting antibody, which is coupled to glucose oxidase (GO), to an epitope on the captured target protein that is different from the epitope recognized by the capture antibody, followed by the binding of a second detecting antibody, which is coupled to horseradish peroxidase (HRP), to a phosphorylated tyrosine (p-Tyr) residue on the target protein. […]
(§2) The capture antibodies against mouse IgG, human epidermal growth factor receptor 1 (Her1), human epidermal growth factor receptor 2 (Her2), human epidermal growth factor receptor 3 (Her3), human hepatocyte growth factor receptor (cMET), human insulin-like growth factor-1 receptor (IGF1R), human stem cell growth factor receptor (cKit), human phosphatidylinositol-3-kinase (PI3K), human Src homology 2 domain-containing protein (SHC) and human cytokeratin (CK), were printed in this order in 10 rows from top to bottom in each slide. […] The relative fluorescence value of the respective reagent blank was subtracted from each sample to give a relative fluorescence unit (RFU) according the number of cells' extract.
Assay [6] deals with IGF-1R pathway in H460 cells. The assay can be described thus: Inhibition of activated signaling pathways by kinase inhibitors (CEER assay), H460. Format: cell-based, human. The following applies: H460, serum-starved overnight, 4-hour treatment, CEER assay (FIG. 2).
Description: as §1, §2
A further assay has as its system HCC827 cells. The assay can be described thus: Inhibition of tumor cell line growth (CellTiter-Glo), HCC827. In kind it is cell-based, human.
Assay [7] has as its system H358 cells. The assay can be described thus: Inhibition of tumor cell line growth (CellTiter-Glo), H358. In kind it is cell-based, human. To be noted: H358, single inhibitor 0.01-10 μM, 5% FBS, 48 hours.
In assay [8] the test system is H358 cells. The assay can be described thus: Anchorage-independent growth inhibition (soft agarose colonies), H358. Format: cell-based, human. The following applies: H358, 0.1 μM and 1 μM, two weeks, agar.
Protocol: (§3) The plates were kept at 4° C. for 2 hr to solidify the cell-containing layer. The plates were then incubated at 37° C. in a CO2 incubator with 2 mL of medium containing various concentrations of the kinase inhibitor. The medium with the inhibitor was changed every 3 days.
Assay [9] has as its system A549 cells. The assay can be described thus: Anchorage-independent growth inhibition (soft agarose colonies), A549. Format: cell-based, human. To be noted: A549, 0.1 μM and 1 μM, two weeks, agar.
Protocol: as §3
Assay [10] relates to H460 cells. The assay can be described thus: Anchorage-independent growth inhibition (soft agarose colonies), H460. The following applies: H460, 0.1 μM and 1 μM, two weeks, agar. Format: cell-based, human.
Protocol: as §3
Assay [11] deals with H1734 cells. The assay can be described thus: Inhibition of tumor cell line growth (CellTiter-Glo), H1734. To be noted: H1734, single inhibitor 0.01-10 μM, 5% FBS, 48 hours.
Assay [12] deals with Her1 and/or Her2 pathway in H1734 cells. To be noted: H1734, serum-starved overnight, 4-hour treatment, CEER assay (FIG. 2).
Description: as §1, §2
The subject of assay [13] is H1734 cells. The assay can be described thus: Anchorage-independent growth inhibition (soft agarose colonies), H1734. To be noted: H1734, 0.1 μM and 1 μM, two weeks, agar. In kind it is cell-based, human.
Assay [14] deals with c-Met pathway in H1993 cells. The assay can be described thus: Inhibition of activated signaling pathways by kinase inhibitors (CEER assay), H1993 c-Met. Format: cell-based, human. The following applies: H1993, serum-starved overnight, 4-hour treatment, CEER assay (FIG. 2).
Description: as §1, §2
The subject of assay [15] is H1993 cells. The assay can be described thus: Anchorage-independent growth inhibition (soft agarose colonies), H1993. Format: cell-based, human. The following applies: H1993, 0.1 μM and 1 μM, two weeks, agar.
Protocol: as §3
[16] abbreviates: H1975, single inhibitor 0.01-10 μM, 5% FBS, 48 hours.

As to `Cn1c(=O)n(-c2ccc(C(C)(C)C#N)cc2)c2c3cc(-c4cnc5ccccc5c4)ccc3ncc21` [BEZ-235], the “inhibition of cell proliferation” value with H1975 cells (setting [16]) is recorded as “weakly inhibited”; with H1993 cells [1] it was “only weakly”; in the assay on A549 cells [2] it was “inhibited; also recorded: sensitive”; in the assay with H460 cells [3], “inhibited; also recorded: sensitive”. Also, the “inhibition of tumor cell growth across the cell lines tested” value in assay [4] is “effectively inhibited tumor cell growth in most of the cell lines tested, except the H1993 and H1650 cells”.
In the case of `CN(C)C/C=C/C(=O)Nc1cc2c(Nc3ccc(F)c(Cl)c3)ncnc2cc1O[C@H]1CCOC1` [BIBW-2992], the “inhibition of cell proliferation” value is given as “potently inhibit the growth; also recorded: moderately inhibited” in the assay on H1975 cells, “only weakly” with H1993 cells [1] and “inhibited” with H1650 cells.
For `Cc1cc(N2CCOCC2)cc2[nH]c(-c3c(NC[C@@H](O)c4cccc(Cl)c4)cc[nH]c3=O)nc12` [BMS-536924], the “blocking of activated IGF-1R pathway” value in assay [5] and in [6] was “able to block” throughout. The “inhibition of cell proliferation” value in the assay with HCC827 cells (HCC827, single inhibitor 0.01-10 μM, 5% FBS, 48 hours) was “inhibition of proliferation”; in the assay on H1975 cells (setting [16]), “able to inhibit the growth”; in the assay on H358 cells [7] it was “inhibit its proliferation more effectively”; in the assay with A549 cells [2], “inhibited”; in the assay on H460 cells [3], “weakly inhibited”. For the same molecule, the “reduction of cell colony size, anchorage-independent growth” value in the assay with H358 cells [8], in the assay with A549 cells [9] and in the assay on H460 cells [10] was “reduce cell colony size formation dose-dependently” each time.
Consider `C#Cc1cccc(Nc2ncnc3cc(OCCOC)c(OCCOC)cc23)c1` [Erlotinib], for which the “inhibition of cell proliferation” value with H1975 cells (setting [16]) and in the assay with H1734 cells [11] was “inhibited” each time.
On to `CS(=O)(=O)CCNCc1ccc(-c2ccc3ncnc(Nc4ccc(OCc5cccc(F)c5)c(Cl)c4)c3c2)o1` [Lapatinib], for which the “inhibition of cell proliferation” value is “able to inhibit the proliferation” in the assay on HCC827 cells, “resistant” in the assay on H1975 cells (setting [16]) and “weakly blocked” in the assay on H358 cells [7]. For the same molecule, the “blocking of Her1 and/or Her2 pathway activation” value in assay [12] is listed as “activation blocked”.
Take `O=C(NOC[C@H](O)CO)c1ccc(F)c(F)c1Nc1ccc(I)cc1F` [PD-325901]: the “inhibition of cell proliferation” value in the assay with H1975 cells (setting [16]) was “weakly inhibited”; with H1993 cells [1], “able to block the proliferation”; with H358 cells [7] it was “not”; with A549 cells [2], “not and weakly”; in the assay with H460 cells [3] it was “not”; with H1734 cells [11], “effective in blocking the growth”. In addition, in the assay on H1734 cells [13], the “proliferation of cell colony size, anchorage-independent growth” value was “potently blocked”.
As for `C[C@@H](Oc1cc(-c2cnn(C3CCNCC3)c2)cnc1N)c1c(Cl)ccc(F)c1Cl` [PF-2341066], the “blocking of c-Met pathway activation” value in [14] is listed as “blocked”. In addition, the “inhibition of cell proliferation” value in the assay on H1993 cells [1] is “block its proliferation very effectively”; in the assay with H358 cells [7], “not inhibited”. The “large colony formation, anchorage-independent growth” value with H1993 cells [15] is on record as “inhibited”.
